Results on 6 compounds are retold here after patent US20110288152A1, “PSMA BINDING LIGAND-LINKER CONJUGATES AND METHODS FOR USING” (Purdue Research Foundation, priority 2008, published 2011).

Test [1] concerns the target T1, PSMA on LNCaP cells (Homo sapiens, UniProt Q04609).
T1 construct: LNCaP cells (a human prostate cancer cell line over-expressing PSMA); host or cells: LNCaP
As to the kind of experiment: Spacer-dependent binding studies of DUPA-Linker-99mTc compounds on LNCaP cells. Conditions: 37° C., 1 hour, 0 nM-1280 nM, read-out: Kd from cell bound radioactivity versus concentration of DUPA-Linker-99Tc imaging agents. As to the method:
Cells were then incubated with increasing concentrations of SK60-99 mTc (zero atom spacer), SK62-99 mTc (7 atom spacer), SK28-99 mTc (14 atom spacer), SK38-99 mTc (16 atom spacer) and SK57-99 mTc (24 atom spacer) from 0 nM-1280 nM (triplicates for each concentration) in a 5%-CO2 atmosphere at 37° C. for 1 hour. Also, in separate plates, cells was incubated with 50 uM PMPA in a 5%-CO2 atmosphere at 37° C. for 30 minutes and then incubated with increasing concentration of SK60-99 mTc (zero atom spacer), SK62-99 mTc (7 atom spacer), SK28-99 mTc (14 atom spacer), SK38-99 mTc (16 atom spacer) and SK57-99 mTc (24 atom spacer) from 0 nM-1280 nM (triplicates for each concentration) in a 5%-CO2 atmosphere at 37° C. for 1 hour (competition studies; data not shown). […] The plot of cell bound radioactivity verses concentration of the radiolabeled compound was used to calculate the Kd value. The plot of % saturation verses concentration of the radiolabeled compound as well as the plot for Kd verses spacer length are shown (FIGS. 4 and 5).

Test [2] concerns the target PSMA (Homo sapiens, UniProt Q04609). The following applies: urea PSMA ligands of formula drawing 51, R^1 varied; cited from earlier work.
The target of test [3] is T1, PSMA on LNCaP cells. As to the kind of experiment: In vitro binding studies using LNCaP cells and SK28-99mTc, with and without excess PMPA. Conditions: 37° C., 1 hour, 0 nM-450 nM, read-out: Kd from cell bound radioactivity versus concentration. As to the method: Cells of one 24-well plate were incubated with increasing concentrations of SK28-99 mTc from 0 nM-450 nM (triplicates for each concentration) in a 5%-CO2 atmosphere at 37° C. for 1 hour. Cells of the second 24-well plate were incubated with 50 uM PMPA in a 5%-CO2 atmosphere at 37° C. for 30 minutes, then incubated with increasing concentrations of SK28-99 mTc from 0 nM-450 nM (triplicates for each concentration) in a 5%-CO2 atmosphere at 37° C. for 1 hour (competition study). […] The competition study was used to determine the binding specificity of the ligand (DUPA) to the PSMA (FIG. 1).
LNCaP cells (150,000 cells/well) were seeded onto 24-well Falcon plates and allowed to form confluent monolayers over 48 h. Spent medium in each well was replaced with fresh medium (0.5 mL) containing increasing concentrations of DUPA-99 mTc in the presence (▴) or absence (▪) of excess PMPA. After incubating for 1 h at 37° C., cells were rinsed with culture medium (2×1.0 mL) and tris buffer (1×1.0 mL) to remove any unbound radioactivity. After suspending cells in tris buffer (0.5 mL), cell bound radioactivity was counted using a γ-counter (Packard, Packard Instrument Company). The dissociation constant (KD) was calculated using a plot of cell bound radioactivity versus the concentration of the radiotracer using nonlinear regression in GraphPad Prism 4. Error bars represent 1 standard deviation (n=3). […]

Test [4] has as its target T1, PSMA on LNCaP cells. As to the kind of experiment: Quantification of PSMA molecules on LNCaP cells (cell bound radioactivity at saturation). The test is classed as cell-based. The following applies: for cell bound radioactivity at the saturation point: 1 hour. Here is the method: Cells were then incubated with increasing concentrations of SK28-99 mTc from 0 nM-450 nM (triplicates for each concentration) in a 5%-CO2 atmosphere at 4° C. or at 37° C. for 1 hour. […] The radioactivity of a 30 nM sample of SK28-99 mTc (20 uL) was counted. At 4° C. (to prevent endocytosis of PSMA), the number of moles in the 30 nM sample=30 nM×20 uL=(30×10-9 mol/L)×(20×10-6 L)=6×10-13 mol. The number of atoms in the 30 nM sample=(6×10-13 mol)×(6.023×1023 atom/mol)=3.6×1011 atom. The radio count of 20 uL of the 30 nM sample=20477 cpm (cpm/atom=3.6×1011/20477=1.76×107). The cell bound radioactivity at the saturation point at 4° C.=12 000 cpm. The number of atoms at the saturation point=(1.76×107 atom)×(12 000 cpm). The number of cells/well=245,000.
The cell bound radioactivity at the saturation point at 37° C.=33,000 cpm (approximately three fold higher than at 4° C.).

Starred links: 1 amine or outer side, 2 acyl side, 3 side chain; linkers in the order of their positions; H or OH if unused. Non-standard residues stand in square brackets, D forms with d. Residues, ends and D or L forms follow the SMILES beside them. Groups on a side chain read outwards from the residue. γGlu = O=C(O)[C@H](CCC(=O)[*:2])N[*:1]; Dap = NC[C@H](N)C(=O)O; Aoc = NCCCCCCCC(=O)O; CO = O=C([*:1])[*:2]

T1 sequence (Q04609 whole entry): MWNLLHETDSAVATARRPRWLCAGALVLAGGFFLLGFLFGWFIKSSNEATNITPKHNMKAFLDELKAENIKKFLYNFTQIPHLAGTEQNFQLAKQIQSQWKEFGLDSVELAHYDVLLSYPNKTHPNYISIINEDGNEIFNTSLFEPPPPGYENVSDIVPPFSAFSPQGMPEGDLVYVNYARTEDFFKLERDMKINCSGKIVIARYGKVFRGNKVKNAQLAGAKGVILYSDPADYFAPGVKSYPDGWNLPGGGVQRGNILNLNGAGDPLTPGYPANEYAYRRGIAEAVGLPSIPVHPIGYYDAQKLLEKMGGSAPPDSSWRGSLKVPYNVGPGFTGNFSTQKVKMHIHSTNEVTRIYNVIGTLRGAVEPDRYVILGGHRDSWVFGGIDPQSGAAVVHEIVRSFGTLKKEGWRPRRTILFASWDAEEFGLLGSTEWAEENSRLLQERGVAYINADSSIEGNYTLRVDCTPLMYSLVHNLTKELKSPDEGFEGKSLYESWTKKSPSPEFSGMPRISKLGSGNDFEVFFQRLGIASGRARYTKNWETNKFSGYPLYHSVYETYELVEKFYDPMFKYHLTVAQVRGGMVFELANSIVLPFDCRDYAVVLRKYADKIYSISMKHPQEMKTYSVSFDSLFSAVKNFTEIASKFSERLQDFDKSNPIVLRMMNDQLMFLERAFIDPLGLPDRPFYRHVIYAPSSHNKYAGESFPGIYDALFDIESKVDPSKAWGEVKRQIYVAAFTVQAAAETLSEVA
PSMA, sequence (Q04609 whole entry, species assumed): as the sequence (Q04609 whole entry) above

Regarding `N[C@@H](CNC(=O)[C@H](Cc1ccccc1)NC(=O)CC[C@H](NC(=O)CC[C@H](NC(=O)N[C@@H](CCC(=O)O)C(=O)O)C(=O)O)C(=O)O)C(=O)N[C@@H](CC(=O)O)C(=O)N[C@@H](CS)C(=O)O` [7-atom linker] (H-[Dap]([Phe-γGlu-γGlu-CO-Glu])-Asp-Cys-OH), the Kd in test [1] came out at 68 nM.

The Ki is the dissociation constant of the complex between target and ligand, obtained from inhibition or displacement. Take `O=C(O)CCC(NC(=O)NC(CS)C(=O)O)C(=O)O` (stereo not shown) [drawing 52 (R = H)]: the Ki in test [2] was 6.9 nM.

`N[C@@H](CNC(=O)CC[C@H](NC(=O)N[C@@H](CCC(=O)O)C(=O)O)C(=O)O)C(=O)N[C@@H](CC(=O)O)C(=O)N[C@@H](CS)C(=O)O` [0-atom linker] (H-[Dap]([γGlu-CO-Glu])-Asp-Cys-OH): in test [1], the Kd came to 171 nM.

Take `N[C@@H](CNC(=O)[C@H](Cc1ccccc1)NC(=O)[C@H](Cc1ccccc1)NC(=O)CCCCCCCNC(=O)CC[C@H](NC(=O)N[C@@H](CCC(=O)O)C(=O)O)C(=O)O)C(=O)N[C@@H](CC(=O)O)C(=O)N[C@@H](CS)C(=O)O` [SK28-^99mTc, metal not drawn] (H-[Dap]([Phe-Phe-Aoc-γGlu-CO-Glu])-Asp-Cys-OH): the Kd in test [3] is 18.1 nM; in test [1] it was 15 nM. Further, the “cell bound radioactivity at saturation, 37° C. relative to 4° C.” value in test [4] was “approximately three”. Further, the entries for the “cell bound radioactivity at the saturation point” value in test [4] (4° C.) and in test [4] (37° C.) were 12 000 cpm and 33,000 cpm, respectively.

For the compound `N[C@@H](CNC(=O)CC[C@H](NC(=O)[C@H](Cc1ccccc1)NC(=O)CCCCCCCNC(=O)CC[C@H](NC(=O)N[C@@H](CCC(=O)O)C(=O)O)C(=O)O)C(=O)O)C(=O)N[C@@H](CC(=O)O)C(=O)N[C@@H](CS)C(=O)O` [16-atom linker] (H-[Dap]([γGlu-Phe-Aoc-γGlu-CO-Glu])-Asp-Cys-OH), in test [1], the Kd amounted to 40 nM. Consider `CC(C)(C)SCC(NC(=O)NC(CCC(=O)O)C(=O)O)C(=O)O` (stereo not shown) [drawing 52 (R = tert-Bu)], for which the Ki in test [2] is 29 nM.
